From article PMC3968014, “Design and Synthesis of a Library of Lead-Like 2,4-Bisheterocyclic Substituted Thiophenes as Selective Dyrk/Clk Inhibitors” (PLoS ONE, 2014)

Legend:
FGFR3 = biological target: T1, FGFR3 (Homo sapiens, UniProt P22607); experiment: Selectivity panel FGFR3; assay type: biochemical; details: 5 µM inhibitor
T1 construct: purchased Life Technologies (Invitrogen SelectScreen); Dyrk1A, Dyrk2 and CK2α in-house or gifts

AURKA (Aurora A) = biological target: T2, AURKA (Aurora A) (Homo sapiens, UniProt O14965); experiment: Selectivity panel AURKA; assay type: biochemical; details: 5 µM inhibitor
T2 construct: purchased Life Technologies (Invitrogen SelectScreen); Dyrk1A, Dyrk2 and CK2α in-house or gifts

SRPK1 = biological target: T3, SRPK1 (Homo sapiens, UniProt Q96SB4); experiment: Selectivity panel SRPK1; assay type: biochemical; details: 5 µM inhibitor
T3 construct: purchased Life Technologies (Invitrogen SelectScreen); Dyrk1A, Dyrk2 and CK2α in-house or gifts

CHEK2 (CHK2) = biological target: T4, CHEK2 (CHK2) (Homo sapiens, UniProt O96017); experiment: Selectivity panel CHEK2; assay type: biochemical; details: 5 µM inhibitor
T4 construct: purchased Life Technologies (Invitrogen SelectScreen); Dyrk1A, Dyrk2 and CK2α in-house or gifts

TEK (Tie2) = biological target: T5, TEK (Tie2) (Homo sapiens, UniProt Q02763); experiment: Selectivity panel TEK; assay type: biochemical; details: 5 µM inhibitor
T5 construct: purchased Life Technologies (Invitrogen SelectScreen); Dyrk1A, Dyrk2 and CK2α in-house or gifts

PKN1 (PRK1) = biological target: T6, PKN1 (PRK1) (Homo sapiens, UniProt Q16512); experiment: Selectivity panel PKN1; assay type: biochemical; details: 5 µM inhibitor
T6 construct: purchased Life Technologies (Invitrogen SelectScreen); Dyrk1A, Dyrk2 and CK2α in-house or gifts

PTK6 (Brk) = biological target: T7, PTK6 (Brk) (Homo sapiens, UniProt Q13882); experiment: Selectivity panel PTK6; assay type: biochemical; details: 5 µM inhibitor
T7 construct: purchased Life Technologies (Invitrogen SelectScreen); Dyrk1A, Dyrk2 and CK2α in-house or gifts

NEK1 = biological target: T8, NEK1 (Homo sapiens, UniProt Q96PY6); experiment: Selectivity panel NEK1; assay type: biochemical; details: 5 µM inhibitor
T8 construct: purchased Life Technologies (Invitrogen SelectScreen); Dyrk1A, Dyrk2 and CK2α in-house or gifts
T8 sequence (Q96PY6 whole entry): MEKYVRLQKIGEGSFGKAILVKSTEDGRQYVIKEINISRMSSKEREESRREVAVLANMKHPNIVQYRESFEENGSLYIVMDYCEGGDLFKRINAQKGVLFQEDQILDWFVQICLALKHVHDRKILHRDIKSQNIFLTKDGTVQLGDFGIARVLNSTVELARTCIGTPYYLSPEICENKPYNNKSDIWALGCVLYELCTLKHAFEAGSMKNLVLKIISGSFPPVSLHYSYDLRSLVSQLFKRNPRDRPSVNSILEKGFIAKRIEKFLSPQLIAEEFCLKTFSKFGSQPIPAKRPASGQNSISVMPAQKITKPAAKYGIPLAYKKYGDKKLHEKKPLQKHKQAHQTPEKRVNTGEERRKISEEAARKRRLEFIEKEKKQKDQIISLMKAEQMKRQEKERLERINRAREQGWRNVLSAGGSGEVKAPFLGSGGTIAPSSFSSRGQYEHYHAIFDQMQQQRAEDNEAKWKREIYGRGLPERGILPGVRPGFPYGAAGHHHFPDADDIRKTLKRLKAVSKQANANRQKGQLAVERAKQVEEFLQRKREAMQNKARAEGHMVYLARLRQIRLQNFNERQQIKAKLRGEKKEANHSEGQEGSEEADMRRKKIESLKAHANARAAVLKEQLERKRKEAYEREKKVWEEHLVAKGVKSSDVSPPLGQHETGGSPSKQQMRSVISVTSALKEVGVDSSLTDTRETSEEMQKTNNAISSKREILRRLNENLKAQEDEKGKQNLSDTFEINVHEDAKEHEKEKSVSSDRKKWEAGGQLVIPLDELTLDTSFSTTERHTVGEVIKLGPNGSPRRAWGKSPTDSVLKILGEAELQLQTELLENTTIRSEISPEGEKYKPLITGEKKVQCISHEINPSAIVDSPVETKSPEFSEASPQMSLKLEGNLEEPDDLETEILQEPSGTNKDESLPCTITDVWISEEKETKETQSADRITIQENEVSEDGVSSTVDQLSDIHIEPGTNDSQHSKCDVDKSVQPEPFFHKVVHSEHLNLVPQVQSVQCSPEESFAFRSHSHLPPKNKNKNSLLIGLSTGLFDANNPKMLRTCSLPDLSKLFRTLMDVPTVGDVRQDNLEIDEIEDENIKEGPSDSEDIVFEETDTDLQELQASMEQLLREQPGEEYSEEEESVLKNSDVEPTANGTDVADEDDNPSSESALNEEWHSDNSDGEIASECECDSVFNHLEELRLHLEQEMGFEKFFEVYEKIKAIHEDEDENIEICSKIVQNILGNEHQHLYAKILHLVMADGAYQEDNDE

RAF1 (cRAF) Y340D Y341D = biological target: T9, RAF1 (cRAF) Y340D Y341D (Homo sapiens, UniProt P04049, Y340D/Y341D); experiment: Selectivity panel RAF1; assay type: biochemical; details: 5 µM inhibitor
T9 construct: purchased Life Technologies (Invitrogen SelectScreen); Dyrk1A, Dyrk2 and CK2α in-house or gifts
T9 sequence (P04049 whole entry Y340D/Y341D): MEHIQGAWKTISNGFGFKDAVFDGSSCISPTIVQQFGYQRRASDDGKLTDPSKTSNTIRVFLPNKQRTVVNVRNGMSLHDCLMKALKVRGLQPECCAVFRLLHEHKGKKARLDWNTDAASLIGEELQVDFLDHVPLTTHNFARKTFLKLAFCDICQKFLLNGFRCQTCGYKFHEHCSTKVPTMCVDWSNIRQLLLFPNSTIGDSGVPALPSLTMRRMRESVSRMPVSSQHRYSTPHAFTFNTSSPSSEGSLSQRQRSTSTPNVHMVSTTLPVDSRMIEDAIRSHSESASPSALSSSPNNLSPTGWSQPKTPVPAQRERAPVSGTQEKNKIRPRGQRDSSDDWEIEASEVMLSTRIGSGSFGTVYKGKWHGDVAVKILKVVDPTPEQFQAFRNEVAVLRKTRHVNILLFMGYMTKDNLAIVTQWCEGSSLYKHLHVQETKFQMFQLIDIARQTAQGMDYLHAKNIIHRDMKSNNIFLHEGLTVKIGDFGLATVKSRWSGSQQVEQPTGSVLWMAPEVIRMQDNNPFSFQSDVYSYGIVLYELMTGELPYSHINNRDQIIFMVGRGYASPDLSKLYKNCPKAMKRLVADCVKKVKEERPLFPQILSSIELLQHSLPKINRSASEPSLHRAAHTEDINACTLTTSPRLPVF

CDK1/cyclin B = biological target: T10, CDK1/cyclin B (Homo sapiens, UniProt P06493); experiment: Selectivity panel CDK1/cyclin B; assay type: biochemical; details: 5 µM inhibitor
T10 construct: purchased Life Technologies (Invitrogen SelectScreen); Dyrk1A, Dyrk2 and CK2α in-house or gifts

ROCK2 = biological target: T11, ROCK2 (Homo sapiens, UniProt O75116); experiment: Selectivity panel ROCK2; assay type: biochemical; details: 5 µM inhibitor
T11 construct: purchased Life Technologies (Invitrogen SelectScreen); Dyrk1A, Dyrk2 and CK2α in-house or gifts

EPHB3 = biological target: T12, EPHB3 (Homo sapiens, UniProt P54753); experiment: Selectivity panel EPHB3; assay type: biochemical; details: 5 µM inhibitor
T12 construct: purchased Life Technologies (Invitrogen SelectScreen); Dyrk1A, Dyrk2 and CK2α in-house or gifts
T12 sequence (P54753 34-998): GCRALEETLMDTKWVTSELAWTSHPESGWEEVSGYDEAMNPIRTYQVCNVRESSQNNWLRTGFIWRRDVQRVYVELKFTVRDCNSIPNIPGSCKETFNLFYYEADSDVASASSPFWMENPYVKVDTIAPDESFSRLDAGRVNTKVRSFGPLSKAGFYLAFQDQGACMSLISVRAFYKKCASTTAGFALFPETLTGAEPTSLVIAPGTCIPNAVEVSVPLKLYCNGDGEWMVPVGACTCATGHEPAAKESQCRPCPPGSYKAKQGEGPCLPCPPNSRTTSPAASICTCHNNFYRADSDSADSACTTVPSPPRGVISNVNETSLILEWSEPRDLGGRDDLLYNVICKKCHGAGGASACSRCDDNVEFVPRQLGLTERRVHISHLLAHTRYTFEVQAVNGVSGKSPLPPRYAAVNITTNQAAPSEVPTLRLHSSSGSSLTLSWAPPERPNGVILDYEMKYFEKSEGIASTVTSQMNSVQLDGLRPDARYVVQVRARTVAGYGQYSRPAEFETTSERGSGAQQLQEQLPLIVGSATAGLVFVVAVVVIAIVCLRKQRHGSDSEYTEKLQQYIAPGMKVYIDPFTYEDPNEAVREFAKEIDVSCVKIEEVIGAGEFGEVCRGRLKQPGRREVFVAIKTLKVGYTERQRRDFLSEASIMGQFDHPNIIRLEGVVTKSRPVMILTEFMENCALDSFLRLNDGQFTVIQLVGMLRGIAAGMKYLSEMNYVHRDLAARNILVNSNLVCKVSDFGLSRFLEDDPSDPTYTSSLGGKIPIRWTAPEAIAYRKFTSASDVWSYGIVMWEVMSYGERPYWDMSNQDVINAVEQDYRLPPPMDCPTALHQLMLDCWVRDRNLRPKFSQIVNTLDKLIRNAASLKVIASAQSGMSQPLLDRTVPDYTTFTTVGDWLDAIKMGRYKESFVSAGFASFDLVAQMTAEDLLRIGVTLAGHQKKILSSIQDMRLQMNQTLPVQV

AKT1 (PKB alpha) = biological target: T13, AKT1 (PKB alpha) (Homo sapiens, UniProt P31749); experiment: Selectivity panel AKT1; assay type: biochemical; details: 5 µM inhibitor
T13 construct: purchased Life Technologies (Invitrogen SelectScreen); Dyrk1A, Dyrk2 and CK2α in-house or gifts

SRC = biological target: T14, SRC (Homo sapiens, UniProt P12931); experiment: Selectivity panel SRC; assay type: biochemical; details: 5 µM inhibitor
T14 construct: purchased Life Technologies (Invitrogen SelectScreen); Dyrk1A, Dyrk2 and CK2α in-house or gifts

MYLK2 (skMLCK) = biological target: T15, MYLK2 (skMLCK) (Homo sapiens, UniProt Q9H1R3); experiment: Selectivity panel MYLK2; assay type: biochemical; details: 5 µM inhibitor
T15 construct: purchased Life Technologies (Invitrogen SelectScreen); Dyrk1A, Dyrk2 and CK2α in-house or gifts

PAK4 = biological target: T16, PAK4 (Homo sapiens, UniProt O96013); experiment: Selectivity panel PAK4; assay type: biochemical; details: 5 µM inhibitor
T16 construct: purchased Life Technologies (Invitrogen SelectScreen); Dyrk1A, Dyrk2 and CK2α in-house or gifts
T16 sequence (O96013 whole entry): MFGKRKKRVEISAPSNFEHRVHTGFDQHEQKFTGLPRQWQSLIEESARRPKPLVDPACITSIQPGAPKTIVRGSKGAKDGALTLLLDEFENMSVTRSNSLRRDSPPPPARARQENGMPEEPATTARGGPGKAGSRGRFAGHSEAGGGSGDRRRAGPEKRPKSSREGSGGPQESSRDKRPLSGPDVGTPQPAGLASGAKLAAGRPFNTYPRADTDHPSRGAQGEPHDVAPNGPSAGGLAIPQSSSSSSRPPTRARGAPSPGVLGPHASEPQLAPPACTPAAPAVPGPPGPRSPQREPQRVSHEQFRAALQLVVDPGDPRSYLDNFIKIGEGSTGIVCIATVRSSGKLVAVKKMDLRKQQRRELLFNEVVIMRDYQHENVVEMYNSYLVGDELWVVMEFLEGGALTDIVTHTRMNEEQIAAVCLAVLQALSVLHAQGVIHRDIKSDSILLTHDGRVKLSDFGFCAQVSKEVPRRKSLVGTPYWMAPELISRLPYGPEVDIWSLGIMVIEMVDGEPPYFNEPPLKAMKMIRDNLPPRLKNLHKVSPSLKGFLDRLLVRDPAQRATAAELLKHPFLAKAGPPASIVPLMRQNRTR

NEK7 = biological target: T17, NEK7 (Homo sapiens, UniProt Q8TDX7); experiment: Selectivity panel NEK7; assay type: biochemical; details: 5 µM inhibitor
T17 construct: purchased Life Technologies (Invitrogen SelectScreen); Dyrk1A, Dyrk2 and CK2α in-house or gifts

PHKG2 = biological target: T18, PHKG2 (Homo sapiens, UniProt P15735); experiment: Selectivity panel PHKG2; assay type: biochemical; details: 5 µM inhibitor
T18 construct: purchased Life Technologies (Invitrogen SelectScreen); Dyrk1A, Dyrk2 and CK2α in-house or gifts

PRKCE (PKC epsilon) = biological target: T19, PRKCE (PKC epsilon) (Homo sapiens, UniProt Q02156); experiment: Selectivity panel PRKCE; assay type: biochemical; details: 5 µM inhibitor
T19 construct: purchased Life Technologies (Invitrogen SelectScreen); Dyrk1A, Dyrk2 and CK2α in-house or gifts

PIM2 = biological target: T20, PIM2 (Homo sapiens, UniProt Q9P1W9); experiment: Selectivity panel PIM2; assay type: biochemical; details: 5 µM inhibitor
T20 construct: purchased Life Technologies (Invitrogen SelectScreen); Dyrk1A, Dyrk2 and CK2α in-house or gifts

[1] = test system: V79 hamster lung fibroblast cells; experiment: ViaLight Toxicity Assay; assay type: cell-based; details: V79 cells, 5 µM, 48 hours
Description: V79 hamster lung fibroblast cells were plated at a density of 45,000 cells per well in a white 96 well plate and allowed to adhere and grow for 24 hours. The compounds were then applied as dilutions in cell culture medium (DMEM with 10% FCS and penicillin/streptomycin mix) at a final concentration of 5, 10, and 20 µM, respectively. The plate was further incubated for 48 hours at 37°C in a humidified atmosphere containing 5% CO2. The ATP level was detected with a LONZA ViaLight™ Plus Kit according to protocol 1 of the vendor's instructions. Luminescence was measured in a POLARstar plate reader (BMG Labtech, Offenburg, Germany). The background luminescence was obtained from equally treated, cell-free wells containing serum, and subtracted from all values. Inhibition values obtained for different compound concentrations were compared using the two-sided Student's t-test; levels of significance thus obtained are indicated by asterisks.

EEF2K = biological target: T21, EEF2K (Homo sapiens, UniProt O00418); experiment: Selectivity panel EEF2K; assay type: biochemical; details: 5 µM inhibitor
T21 construct: purchased Life Technologies (Invitrogen SelectScreen); Dyrk1A, Dyrk2 and CK2α in-house or gifts
T21 sequence (O00418 whole entry): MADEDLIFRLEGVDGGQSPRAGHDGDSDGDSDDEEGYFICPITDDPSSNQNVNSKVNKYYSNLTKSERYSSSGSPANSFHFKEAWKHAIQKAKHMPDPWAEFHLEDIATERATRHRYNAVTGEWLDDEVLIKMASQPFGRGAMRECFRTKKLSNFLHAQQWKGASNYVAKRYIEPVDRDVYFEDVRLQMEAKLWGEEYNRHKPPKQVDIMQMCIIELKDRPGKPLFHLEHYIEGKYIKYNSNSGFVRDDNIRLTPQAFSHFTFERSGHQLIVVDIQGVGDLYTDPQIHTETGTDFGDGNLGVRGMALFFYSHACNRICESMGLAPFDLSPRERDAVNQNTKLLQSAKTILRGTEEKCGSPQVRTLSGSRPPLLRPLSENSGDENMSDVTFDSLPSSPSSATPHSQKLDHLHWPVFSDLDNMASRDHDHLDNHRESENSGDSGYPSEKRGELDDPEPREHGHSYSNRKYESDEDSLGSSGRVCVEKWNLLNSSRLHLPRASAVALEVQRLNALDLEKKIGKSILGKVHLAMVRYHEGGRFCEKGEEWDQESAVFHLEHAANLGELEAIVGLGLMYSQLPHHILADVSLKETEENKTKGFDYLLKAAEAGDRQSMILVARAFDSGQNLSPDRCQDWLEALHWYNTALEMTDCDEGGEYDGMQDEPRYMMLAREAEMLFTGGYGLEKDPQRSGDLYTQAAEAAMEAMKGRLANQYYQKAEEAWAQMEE

FYN = biological target: T22, FYN (Homo sapiens, UniProt P06241); experiment: Selectivity panel FYN; assay type: biochemical; details: 5 µM inhibitor
T22 construct: purchased Life Technologies (Invitrogen SelectScreen); Dyrk1A, Dyrk2 and CK2α in-house or gifts

MAP4K2 (GCK) = biological target: T23, MAP4K2 (GCK) (Homo sapiens, UniProt Q12851); experiment: Selectivity panel MAP4K2; assay type: biochemical; details: 5 µM inhibitor
T23 construct: purchased Life Technologies (Invitrogen SelectScreen); Dyrk1A, Dyrk2 and CK2α in-house or gifts
T23 sequence (Q12851 whole entry): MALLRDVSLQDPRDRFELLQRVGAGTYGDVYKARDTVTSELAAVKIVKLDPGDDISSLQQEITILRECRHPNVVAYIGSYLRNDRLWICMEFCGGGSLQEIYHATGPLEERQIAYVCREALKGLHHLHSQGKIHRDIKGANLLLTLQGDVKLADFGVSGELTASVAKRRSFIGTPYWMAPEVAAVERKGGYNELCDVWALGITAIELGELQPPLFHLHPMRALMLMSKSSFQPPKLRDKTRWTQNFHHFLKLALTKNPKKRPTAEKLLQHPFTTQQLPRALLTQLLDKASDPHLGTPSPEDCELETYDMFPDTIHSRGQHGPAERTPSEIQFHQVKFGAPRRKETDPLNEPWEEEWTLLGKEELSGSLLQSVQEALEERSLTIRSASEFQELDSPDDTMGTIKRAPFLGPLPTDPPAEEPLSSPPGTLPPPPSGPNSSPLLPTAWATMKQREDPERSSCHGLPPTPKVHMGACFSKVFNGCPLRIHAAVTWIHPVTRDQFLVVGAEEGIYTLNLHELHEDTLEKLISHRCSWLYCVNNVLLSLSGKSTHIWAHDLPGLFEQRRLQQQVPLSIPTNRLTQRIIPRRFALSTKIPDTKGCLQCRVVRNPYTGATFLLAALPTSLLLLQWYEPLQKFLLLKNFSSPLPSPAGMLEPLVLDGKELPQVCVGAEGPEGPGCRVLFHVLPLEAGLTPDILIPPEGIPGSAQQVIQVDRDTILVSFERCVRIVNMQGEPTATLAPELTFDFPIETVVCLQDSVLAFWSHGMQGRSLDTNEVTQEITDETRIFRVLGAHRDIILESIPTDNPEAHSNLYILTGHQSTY

CDK2/cyclin A = biological target: T24, CDK2/cyclin A (Homo sapiens, UniProt P24941); experiment: Selectivity panel CDK2/cyclin A; assay type: biochemical; details: 5 µM inhibitor
T24 construct: purchased Life Technologies (Invitrogen SelectScreen); Dyrk1A, Dyrk2 and CK2α in-house or gifts

BTK = biological target: T25, BTK (Homo sapiens, UniProt Q06187); experiment: Selectivity panel BTK; assay type: biochemical; details: 5 µM inhibitor
T25 construct: purchased Life Technologies (Invitrogen SelectScreen); Dyrk1A, Dyrk2 and CK2α in-house or gifts

DAPK3 (ZIPK) = biological target: T26, DAPK3 (ZIPK) (Homo sapiens, UniProt O43293); experiment: Selectivity panel DAPK3; assay type: biochemical; details: 5 µM inhibitor
T26 construct: purchased Life Technologies (Invitrogen SelectScreen); Dyrk1A, Dyrk2 and CK2α in-house or gifts

U2OS osteosarcoma cells = experiment: ROS Assay (dihydroethidium); assay type: cell-based; details: 48 hours
Description: U2OS osteosarcoma cells were plated on six well cell culture plates (5*10^5 cells/well). […]. Cells were washed with phosphate–buffered saline (PBS) and incubated for 30 min at 37°C in the dark with 10 µM dihydroethidium (DHE) in PBS and washed with PBS. The cells were then trypsinized, collected by centrifugation, and lysed with lysis buffer (100 mM Tris/HCl, pH 7.3, 2 mM EGTA, 2% Triton X100). The amount of ethidium produced by reactive oxygen species (ROS) was quantified by measuring the fluorescence (Ex485, Em620) in a POLARstar plate reader (BMG Labtech, Offenburg, Germany). Values obtained for different compound concentrations were compared using the two-sided Student's t-test; levels of significance thus obtained are indicated by asterisks.

RPS6KA5 (MSK1) = biological target: T27, RPS6KA5 (MSK1) (Homo sapiens, UniProt O75582); experiment: Selectivity panel RPS6KA5; assay type: biochemical; details: 5 µM inhibitor
T27 construct: purchased Life Technologies (Invitrogen SelectScreen); Dyrk1A, Dyrk2 and CK2α in-house or gifts

SMILES | inhibition at 5 µM (FGFR3) [%] | inhibition at 5 µM (AURKA (Aurora A)) [%] | inhibition at 5 µM (SRPK1) [%] | inhibition at 5 µM (CHEK2 (CHK2)) [%] | inhibition at 5 µM (TEK (Tie2)) [%] | inhibition at 5 µM (PKN1 (PRK1)) [%] | inhibition at 5 µM (PTK6 (Brk)) [%] | inhibition at 5 µM (NEK1) [%] | inhibition at 5 µM (RAF1 (cRAF) Y340D Y341D) [%] | inhibition at 5 µM (CDK1/cyclin B) [%] | inhibition at 5 µM (ROCK2) [%] | inhibition at 5 µM (EPHB3) [%] | inhibition at 5 µM (AKT1 (PKB alpha)) [%] | inhibition at 5 µM (SRC) [%] | inhibition at 5 µM (MYLK2 (skMLCK)) [%] | inhibition at 5 µM (PAK4) [%] | inhibition at 5 µM (NEK7) [%] | inhibition at 5 µM (PHKG2) [%] | inhibition at 5 µM (PRKCE (PKC epsilon)) [%] | inhibition at 5 µM (PIM2) [%] | also measured
c1cncc(-c2cc(-c3cncs3)cs2)c1 [Compound 29, 3-[4-(1,3-thiazol-5-yl)thiophen-2-yl]pyridine] | -2 | 5 | 3 | 1 | -1 | -16 | 30 | 3 | 36 | 29 | 6 | 0 | 9 | -8 | 12 | 3 | 0 | -12 | -18 | 7 | influence on cell viability (cellular ATP levels) [1]: no influence on cell viability; inhibition at 5 µM (EEF2K): 0%; inhibition at 5 µM (FYN): -2%; inhibition at 5 µM (MAP4K2 (GCK)): 32%; inhibition at 5 µM (CDK2/cyclin A): 22%; inhibition at 5 µM (BTK): 17%; inhibition at 5 µM (DAPK3 (ZIPK)): -1%; concentration at which enhancement of reporter dye fluorescence (ROS) starts (U2OS osteosarcoma cells): 0.2 µM; inhibition at 5 µM (RPS6KA5 (MSK1)): 15%
c1cncc(-c2csc(-c3cncs3)c2)c1 [Compound 48, 3-[5-(1,3-thiazol-5-yl)thiophen-3-yl]pyridine] | -1 | 2 | 1 | -2 | 0 | -10 | 34 | -5 | 37 | 42 | 9 | 1 | 3 | -4 | 31 | 4 | -7 | -11 | -5 | 5 | influence on cell viability (cellular ATP levels) [1]: no influence on cell viability; inhibition at 5 µM (EEF2K): 1%; inhibition at 5 µM (FYN): 0%; inhibition at 5 µM (MAP4K2 (GCK)): 6%; inhibition at 5 µM (CDK2/cyclin A): 33%; inhibition at 5 µM (BTK): 15%; inhibition at 5 µM (DAPK3 (ZIPK)): -5%; inhibition at 5 µM (RPS6KA5 (MSK1)): 10%
